Assay: xn = mol fraction of the nth substance listed

CCOC(=O)CC(C)=O + CCCCCO
viscosity [mPa·s], 100 kPa
Conditions	x1 = 0.0902	x1 = 0.1791	x1 = 0.2695	x1 = 0.3621	x1 = 0.4424	x1 = 0.5633	x1 = 0.6447	x1 = 0.7739	x1 = 0.8864
293.15 K	2.988	2.424	2.132	1.935	1.8	1.67	1.635	1.603	1.599
298.15 K	2.691	2.191	1.897	1.705	1.602	1.52	1.491	1.481	1.468

NCc1ccccc1 + CCCCCO
viscosity [mPa·s], 101.33 kPa
Conditions	x1 = 0.1	x1 = 0.2004	x1 = 0.2999	x1 = 0.4	x1 = 0.4997	x1 = 0.6	x1 = 0.7003	x1 = 0.8	x1 = 0.8999
298.15 K	3.257	3.009	2.798	2.599	2.419	2.25	2.088	1.943	1.808
303.15 K	2.82	2.607	2.436	2.25	2.124	1.971	1.842	1.72	1.616
308.15 K	2.406	2.283	2.133	1.979	1.841	1.734	1.624	1.526	1.454

C=CCc1ccc(O)c(OC)c1 + CCCCCOC(C)=O
298.15 K, 101 kPa
Conditions	viscosity [mPa·s]
x1 = 0.1	0.698
x1 = 0.162	1.11

O=[N+]([O-])c1cccc(O)c1 + CCCCCOC(C)=O
Conditions	viscosity [mPa·s]
298.15 K, 101 kPa, x1 = 0.5	1.449

NCc1ccccc1 + CCCCN
viscosity [mPa·s], 100 kPa
Conditions	x2 = 0.1	x2 = 0.2	x2 = 0.3	x2 = 0.4	x2 = 0.5	x2 = 0.6	x2 = 0.7	x2 = 0.8	x2 = 0.9
303.15 K	1.324	1.204	1.068	0.964	0.847	0.748	0.654	0.578	0.513
313.15 K	1.125	1.021	0.929	0.835	0.737	0.642	0.567	0.506	0.45
323.15 K	0.965	0.878	0.791	0.718	0.639	0.567	0.5	0.446	0.396

CC(C)NC(C)C + CCCCO
viscosity [mPa·s], 100 kPa
Conditions	298.15 K	303.15 K	308.15 K
x1 = 0.0499	2.316	2.061	1.793
x1 = 0.1095	2.056	1.834	1.609
x1 = 0.1542	1.88	1.688	1.483
x1 = 0.2062	1.699	1.529	1.353
x1 = 0.25	1.552	1.405	1.251
x1 = 0.2969	1.414	1.285	1.149
x1 = 0.4059	1.129	1.037	0.94
x1 = 0.5062	0.916	0.849	0.777
x1 = 0.6009	0.755	0.707	0.656
x1 = 0.7043	0.62	0.583	0.548
x1 = 0.8059	0.516	0.489	0.467
x1 = 0.8543	0.477	0.451	0.432
x1 = 0.8987	0.444	0.42	0.402
x1 = 0.9489	0.408	0.391	0.374

Reference: the CheMixHub viscosity set
